Source: US9708628B2, “Cationic lipid having improved intracellular kinetics” (NOF CORPORATION, priority 2011, dated 2017)
Entries after “also recorded” stand apart in the source; their conditions may differ.

What was measured:
[1] = Liposome destabilization test in reductive environment (DTT, TNS fluorescence); type: physicochemical; settings: 10 mM DTT, 37° C., 0-24 hr; TNS at pH 4.0
Protocol: DTT was added to various MEND solutions to a final concentration of 10 mM and the mixtures were stood at 37° C. The fluorescence intensity was measured using TNS (6-(p-Toludino)-2-Naphthalene Sulfonic acid) at the time points of 0, 1, 2, 4, 8, 24 hr later. The MEND solutions were diluted to 0.5 mM. The 0.5 mM MEND solution (12 μL), 20 mM citrate buffer (186 μL, containing 150 mM NaCl, acidic pH (pH 4.0)), and 0.6 mM TNS (2 μL) were added to a 96-well plate for fluorescence measurement (Nunc), and the fluorescence intensity was measured at excitation wavelength 321 nm, detection wavelength 447 nm, at 37° C. As a control, MEND solution added with the same amount of 10 mM HEPES buffer free of DTT at 0 hr and stood for each time at 37° C. was used, and the fluorescence intensity was measured using TNS by the same treatment. The fluorescence intensity under reductive environment was divided by the fluorescence intensity of the control and used as an index of the destabilization of lipid membrane.
As a result, attenuation of TNS fluorescence due to the DTT treatment was not observed in DODAP and B-2-1 not having a disulfide bond. […] TNS is adsorbed, under an acidic environment of pH 4.0, to a particle surface having a positive surface potential via electrostatically interactions, and emits fluorescence according to the liposoluble environment of the lipid structure part of a liposome.

[2] = system: HT1080 cells; assay: Intracellular kinetics: decapsulation of pDNA from MEND (confocal microscopy); type: cell-based; settings: 3 hr after transfection
Protocol: For MEND preparation, the Rhodamine-labeled pDNA prepared by the method of [Experimental Example 1] (4) was used. In addition, the fluorescence label of the lipid constituting MEND was measured by the method described in [Experimental Example 1] (3). MENDs having a composition of cationic lipid:SOPE:Chol=5:3:2 were prepared by the method described in [Experimental Example 1] (2). For the preparation, PEG2000-DMG was used as PEG lipid, and MEND solutions corresponding to 0.55 mM of the lipid concentration were prepared. For cationic MEND, a lipid having a composition of DOTAP:DOPE:Chol:=3:4:3 was used, and the cationic MEND was prepared according to the method described in [Experimental Example 1] (3). […]
HT1080 cells were plated on a glass bottom dish at 1×10^5 cells/2 mL/dish 24 hr before. B-2 MEND was diluted with Krebs buffer to achieve pDNA 8 μg/1 mL Krebs buffer/dish. As for B-2-1 or DOTAP MEND, MEND was diluted with Krebs buffer to achieve pDNA 1.6 μg/1 mL Krebs buffer/dish and transfected. After 2.5 hr, Hoechst 33342 was added at 1 μL/dish and, 30 min later, the cells were washed twice with heparin solution (20 units/mL, 2 mL), Krebs buffer (1 mL) was added, and the cells were observed by a confocal laser scan microscope.
Rhodamine-labeled pDNA, lipid membrane of MEND and nucleus were shown in pseudo colors of red, green and blue, respectively.

[3] = Particle size and surface potential of siRNA-encapsulated MEND (ethanol dilution method); type: physicochemical; settings: siRNA/protamine MEND, PEG2000-DMG 3 mol %
Protocol: (§1) A siRNA solution and protamine (CALBIOCHEM) solution were diluted with 10 mM HEPES buffer (pH 5.3) to 0.3 mg/mL and 0.2 mg/mL, respectively. While stirring 0.3 mg/mL siRNA solution (250 μL), 0.2 mg/mL protamine solution (250 μL) was added dropwise in small portions to prepared an electrostatic complex of siRNA and protamine (N/P ratio=1.0) as a core of the vector.
(§2) A lipid solution in ethanol was mixed at a ratio of B-2:SOPE:Chol=5:3:2 for B-2 MEND (Example 1), at a ratio of B-2-4:DOPE:Chol=3:3:4 for B-2-4 MEND (Example 4), and at a ratio of B-2-5:POPE:Chol=3:4:3 for B-2-5 MEND (Example 5), to a total lipid of 660 nmol in a 5 mL tube. Further, PEG2000-DMG was added as PEG lipid in an amount equivalent to 3 mol % of the total lipid, and ethanol was added to a total volume of 400 μL each. While stirring the lipid solution by a vortex mixer, a solution (400 μL) of a nucleic acid electrostatic complex composed of siRNA/protamine prepared in [Experimental Example 27] was mixed, then 10 mM HEPES buffer (pH 5.3, 2.4 mL) was quickly added, and the mixture was vigorously stirred. The mixture was subjected to centrifugal ultrafiltration using Amicon Ultra-15 100K device (Millipore) at 1000 g, 10 min, 30° C. The mixture was sufficiently diluted with 10 mM HEPES buffer (pH 7.4), and again subjected to centrifugal ultrafiltration. This solution was adjusted to an object lipid concentration with 10 mM HEPES buffer (pH 7.4).
The particle size and surface potential were measured using the dynamic light scattering method (Zetasizer Nano; Malvern). The particle size and surface potential of various MENDs prepared by the preparation method of [Experimental Example 28] are shown in Table 5.

[4] = system: Factor VII (FVII); assay: Knockdown effect of siRNA-encapsulated MEND (plasma FVII); type: in vivo, ICR mice; settings: 3 mg siRNA/kg, tail vein, 24 hr
Protocol: as §1
As a siRNA sequence for Factor VII (FVII), one described in Akinc et al, Molecular Therapy, 17(5) 872-879 (2009), which was free of chemical modification, was used.
as §2
A MEND solution prepared by the method shown in [Experimental Example 28] was administered to 4-week-old male ICR mice at 3 mg siRNA/kg from the tail vein, and blood was collected 24 hr later. This blood sample was centrifuged at 1000 g, 10 min, 4° C., and the supernatant was recovered to obtain plasma. The amount of Factor VII (FVII) in the plasma was quantified by BIOPHEN FVII CHROMOGENIC ASSAY (HYPHEN BioMed).

Row | Compound | attenuation of TNS fluorescence due to DTT treatment (destabilization of lipid membrane) [1] | gene decapsulation (colocalization of pDNA red and MEND lipid green) [2] | PDI [3] | size (nm) [3] [nm] | zeta (mV) [3] [mV] | FVII expression level in plasma (knockdown effect) [4]
1 | CCCCCCCC/C=C\CCCCCCCC(=O)OCC(CN(C)C)OC(=O)CCCCCCC/C=C\CCCCCCCC (stereo not drawn) [DODAP, reference compound] | not observed |  |  |  |  | 
2 | CCCCCCCC/C=C\CCCCCCCC(=O)OCC(C[N+](C)(C)C)OC(=O)CCCCCCC/C=C\CCCCCCCC (stereo not drawn) [DOTAP, reference compound] |  | Red dots were notable |  |  |  | 
3 | CCCCCCCCCCCCCC(=O)OCCCN(C)CCCCCCN(C)CCCOC(=O)CCCCCCCCCCCCC [Example B-2-1, reference compound] | not observed | clear colocalization of red and green |  |  |  | 
4 | CC1=C(/C=C/C(C)=C/C=C/C(C)=C/C(=O)OCCCN(C)CCSSCCN(C)CCCOC(=O)/C=C(C)/C=C/C=C(C)/C=C/C2=C(C)CCCC2(C)C)C(C)(C)CCC1 [Example B-2-4] |  |  | 0.11 | 186 | −5.1 | decrease in the FVII expression level as compared to the non-treatment group
5 | Cc1c(C)c2c(c(C)c1OC(=O)CCC(=O)OCCCN(C)CCSSCCN(C)CCCOC(=O)CCC(=O)Oc1c(C)c(C)c3c(c1C)CCC(C)(CCCC(C)CCCC(C)CCCC(C)C)O3)CCC(C)(CCCC(C)CCCC(C)CCCC(C)C)O2 (stereo not drawn) [Example B-2-5] |  |  | 0.13 | 218 | −9.1 | decrease in the FVII expression level as compared to the non-treatment group; also recorded: greatest knockdown effect
6 | CCCCCCCCCCCCCC(=O)OCCCN(C)CCSSCCN(C)CCCOC(=O)CCCCCCCCCCCCC [Example B-2] | disappearance of TNS fluorescence in a time-dependent manner | Red dots were notable | 0.07 | 186 | −1.7 | decrease in the FVII expression level as compared to the non-treatment group
